In article PMC4880976, “Pharmacologic rationale for the NK1R antagonist, aprepitant as adjunctive therapy in HIV” (Journal of Translational Medicine, 2016):

Experiments:
[1] = Protein binding by ultrafiltration in human and rhesus macaque plasma and FBS; format: in vitro ADME; conditions: three experiments
Experimental: These experiments were conducted to assess the linkage between in vitro and in vivo exposure targets in order to more accurately project clinical dose requirements for aprepitant. Protein binding was assessed via ultrafiltration and detection of aprepitant in various biofluids was conducted via LC–MS/MS.
Ultrafiltration units (CorningR Spin-X UF; MWCO 10 K) and filtrate collection tubes were obtained from Corning (Tewksbury, MA). Control human plasma was obtained by centrifugation of blood obtained from CHOP blood bank. Stock solutions of aprepitant in methanol were added to human plasma (1 %, v/v) to provide plasma samples at a nominal concentration of 10 μg/mL. This was further diluted with human plasma to provide 5, 2 and 0.5 μg/mL solutions. Similarly, aprepitant at above four concentration were also prepared in 10 % FBS in DMEM or 10 % FBS in water. Samples were incubated at 37 °C for 30 min to ensure equilibrium was established. Following incubation, an aliquot of sample was removed for determination of the drug concentration post incubation. Triplicate 500 μL aliquots of the samples were added to the sample reservoir of the UF unit with filtrate collection tubes. All ultrafiltration units were centrifuged at 13,000 rpm (15,000×g) for 15 min at 4 °C. […] Internal standard solution (500 μL) was added to each sample analyzed by the validated LC–MS/MS method described above. […]

SIVmac251 = experiment: SIV infectivity study, plasma viral load; format: in vivo, rhesus macaques (Macaca mulatta)
Experimental: For infectivity studies, eight male rhesus macaques were used. Animals were infected intravenously with 50 ng p27 of SIV. Following infection four animals were treated with aprepitant once daily dosing of 125 mg aprepitant administered orally for a year and four infected animals were left untreated. Aprepitant (commercial capsule contents) was mixed and co-administered with various food preparations to ensure dosing compliance. Food preparations included peanut butter, marshmallow cream and honey, disguised in non-citrus fruit. While formal stability and delivery experiments were not conducted, pilot bioavailability studies confirmed the robustness of aprepitant exposures following food co-administration. The improved bioavailability with food-based dosing in conjunction with oral aprepitant is consistent with preclinical experiments which project simulated exposures based on the commercial nanosized aprepitant formulation. In this evaluation, in silico model predictions were similar to observed in vivo pharmacokinetic data in the fed state; other studies have shown the benefit of complexation strategies to enhance aprepitant solubility/dissolution [30, 31].
Blood was collected for PK sampling on days 1, 7 and 14 and trough samples were collected prior to dosing on days 3, 5, 7, 11 and 13. […] Videotaped recordings were analyzed using Observer XT® (Noldus IT). […]

[2] = 1 μM in DMEM 10 % FBS or MDM cultures, days 0-7
Experimental: A validated, liquid chromatography-tandem mass spectrometry method was used for the quantification of aprepitant plasma concentration in HIV infected animals and tissue culture media. The method utilized a simple sample-preparation procedure of protein precipitation with methanol. Chromatographic separation was performed on a reversed phase C8 column (Hypersil Gold, 50 mm × 2.1 mm, 3 μm) using a mobile phase composed of acetonitrile and water in 0.5 % formic acid through gradient elution. Electro-spray ionization in positive mode was incorporated in the tandem mass spectrometric detection. The lower limit of quantitation of aprepitant in human plasma was 1 ng/mL.
GAG expression in control (non-treated) cultures were designated as 100 %; *p < 0.0001 between all groups including control were obtained through one-way ANOVA with post-test analysis by Bonferroni’s Multiple Comparison Test indicating significant difference between all groups in pair wise comparison. b Aprepitant added to DMEM 10 % FBS media or MDM cultures at a concentration of 1 μM (0.53 μg/ml) on day 0 and measured on days 0, 1, 2, 3 and 7. Results are presented as mean ± SD for three independent experiments

NK1R = system: NK1R; set-up: method as in PMID 12562139, PMID 15121485; conditions: 165 mg dose, PET; cited from earlier work

C[C@@H](O[C@H]1OCCN(Cc2n[nH]c(=O)[nH]2)[C@H]1c1ccc(F)cc1)c1cc(C(F)(F)F)cc(C(F)(F)F)c1 [aprepitant]
binding to human and rhesus macaque plasma and FBS [1]: 99.79–99.95% | reduction of viral load (SIVmac251; 125 mg once daily oral for 12 months, SIV-infected rhesus, weeks 12-52): approximately tenfold | reduction in plasma levels of viral RNA versus non-treated controls (SIVmac251; 125 mg/day oral, 3–12 month observation period): 1 log | degradation in culture media [2]: little or no degradation | receptor occupancy (NK1R): 97–99%
